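Step 1: Grow cells in 96-well plates. Step 2: Expose to compound for 48 hours at 5 concentrations. Step 3: Interpolate endpoints linearly; if unreached, use highest concentration. GI50 = concentration required for 50% inhibition of growth. At the TGI there is no net growth.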
Columns and labels:
Assay in all cases: growth of human tumour cells (NCI), 48 h
CAKI-1 renal = system: CAKI-1 renal
U251 CNS = system: U251 CNS
HL-60(TB) leukemia = system: HL-60(TB) leukemia
M14 melanoma = system: M14 melanoma
OVCAR-5 ovarian = system: OVCAR-5 ovarian
UACC-257 melanoma = system: UACC-257 melanoma
HCT-15 colon = system: HCT-15 colon
NCI-H23 lung = system: NCI-H23 lung
MDA-MB-231 breast = system: MDA-MB-231 breast
MDA-MB-435 = system: MDA-MB-435
OVCAR-3 ovarian = system: OVCAR-3 ovarian
SR leukemia = system: SR leukemia
IGROV1 ovarian = system: IGROV1 ovarian
EKVX NSCLC = system: EKVX NSCLC
NCI/ADR-RES ovarian = system: NCI/ADR-RES ovarian
SN12C renal = system: SN12C renal
NCI-H522 lung = system: NCI-H522 lung
A498 renal = system: A498 renal
OVCAR-8 ovarian = system: OVCAR-8 ovarian
HOP-92 NSCLC = system: HOP-92 NSCLC
DU-145 prostate = system: DU-145 prostate
LOX IMVI melanoma = system: LOX IMVI melanoma
SF-539 CNS = system: SF-539 CNS
KM12 colon = system: KM12 colon
T-47D breast = system: T-47D breast
A549 NSCLC = system: A549 NSCLC
SK-MEL-5 melanoma = system: SK-MEL-5 melanoma
SK-OV-3 ovarian = system: SK-OV-3 ovarian
SF-268 CNS = system: SF-268 CNS
NCI-H460 lung = system: NCI-H460 lung
COLO 205 colon = system: COLO 205 colon
UO-31 renal = system: UO-31 renal
RPMI-8226 leukemia = system: RPMI-8226 leukemia
NCI-H226 lung = system: NCI-H226 lung
SW-620 colon = system: SW-620 colon
HS 578T breast = system: HS 578T breast
SNB-19 CNS = system: SNB-19 CNS
TK-10 renal = system: TK-10 renal
PC-3 prostate = system: PC-3 prostate
SK-MEL-28 melanoma = system: SK-MEL-28 melanoma
HCT-116 colon = system: HCT-116 colon
SK-MEL-2 melanoma = system: SK-MEL-2 melanoma
HT29 colon = system: HT29 colon
BT-549 breast = system: BT-549 breast
MALME-3M melanoma = system: MALME-3M melanoma
MCF7 breast = system: MCF7 breast
MDA-MB-468 breast = system: MDA-MB-468 breast
SNB-75 CNS = system: SNB-75 CNS
HOP-62 NSCLC = system: HOP-62 NSCLC
ACHN renal = system: ACHN renal
K-562 leukemia = system: K-562 leukemia
786-0 renal = system: 786-0 renal
CCRF-CEM leukemia = system: CCRF-CEM leukemia
HCC-2998 colon = system: HCC-2998 colon
UACC-62 melanoma = system: UACC-62 melanoma
MOLT-4 leukemia = system: MOLT-4 leukemia
RXF 393 renal = system: RXF 393 renal
SF-295 CNS = system: SF-295 CNS

Structure (SMILES): COc1ccc(NC(=O)Cn2c(/C=C/c3cccc(OC)c3)nc3ccccc3c2=O)cc1
- GI50 (CAKI-1 renal): 2.52 µM
- TGI (CAKI-1 renal): > 31.7 µM
- GI50 (U251 CNS): 0.973 µM
- TGI (U251 CNS): 4.2 µM
- GI50 (HL-60(TB) leukemia): > 100 µM
- TGI (HL-60(TB) leukemia): > 100 µM
- GI50 (M14 melanoma): > 29.3 µM
- TGI (M14 melanoma): > 100 µM
- GI50 (OVCAR-5 ovarian): > 24.9 µM
- TGI (OVCAR-5 ovarian): > 100 µM
- GI50 (UACC-257 melanoma): > 100 µM
- TGI (UACC-257 melanoma): > 100 µM
- GI50 (HCT-15 colon): > 100 µM
- TGI (HCT-15 colon): > 100 µM
- GI50 (NCI-H23 lung): 3.69 µM
- TGI (NCI-H23 lung): > 44.3 µM
- GI50 (MDA-MB-231 breast): 1.4 µM
- TGI (MDA-MB-231 breast): 4.42 µM
- GI50 (MDA-MB-435): > 100 µM
- TGI (MDA-MB-435): > 100 µM
- GI50 (OVCAR-3 ovarian): 4.03 µM
- TGI (OVCAR-3 ovarian): > 45.9 µM
- GI50 (SR leukemia): 1.75 µM
- TGI (SR leukemia): > 100 µM
- GI50 (IGROV1 ovarian): > 31 µM
- TGI (IGROV1 ovarian): > 87.8 µM
- GI50 (EKVX NSCLC): > 63.1 µM
- TGI (EKVX NSCLC): > 100 µM
- GI50 (NCI/ADR-RES ovarian): 4.14 µM
- TGI (NCI/ADR-RES ovarian): 86.9 µM
- GI50 (SN12C renal): 1.85 µM
- TGI (SN12C renal): > 39.1 µM
- GI50 (NCI-H522 lung): 5.8 µM
- TGI (NCI-H522 lung): > 47.5 µM
- GI50 (A498 renal): 1.96 µM
- TGI (A498 renal): 4.68 µM
- GI50 (OVCAR-8 ovarian): 4.55 µM
- TGI (OVCAR-8 ovarian): > 100 µM
- GI50 (HOP-92 NSCLC): 2.95 µM
- TGI (HOP-92 NSCLC): > 44.7 µM
- GI50 (DU-145 prostate): > 81.2 µM
- TGI (DU-145 prostate): > 100 µM
- GI50 (LOX IMVI melanoma): 2.03 µM
- TGI (LOX IMVI melanoma): > 100 µM
- GI50 (SF-539 CNS): 1.65 µM
- TGI (SF-539 CNS): 4.15 µM
- GI50 (KM12 colon): > 100 µM
- TGI (KM12 colon): > 100 µM
- GI50 (T-47D breast): 2.41 µM
- TGI (T-47D breast): 14.6 µM
- GI50 (A549 NSCLC): 2.3 µM
- TGI (A549 NSCLC): > 100 µM
- GI50 (SK-MEL-5 melanoma): > 100 µM
- TGI (SK-MEL-5 melanoma): > 100 µM
- GI50 (SK-OV-3 ovarian): 5.67 µM
- TGI (SK-OV-3 ovarian): > 46.7 µM
- GI50 (SF-268 CNS): 19.4 µM
- TGI (SF-268 CNS): > 100 µM
- GI50 (NCI-H460 lung): 2.51 µM
- TGI (NCI-H460 lung): > 100 µM
- GI50 (COLO 205 colon): > 100 µM
- TGI (COLO 205 colon): > 100 µM
- GI50 (UO-31 renal): 1.73 µM
- TGI (UO-31 renal): 3.77 µM
- GI50 (RPMI-8226 leukemia): > 100 µM
- TGI (RPMI-8226 leukemia): > 100 µM
- GI50 (NCI-H226 lung): 1.98 µM
- TGI (NCI-H226 lung): 6.51 µM
- GI50 (SW-620 colon): > 100 µM
- TGI (SW-620 colon): > 100 µM
- GI50 (HS 578T breast): 2.46 µM
- TGI (HS 578T breast): > 100 µM
- GI50 (SNB-19 CNS): 8.37 µM
- TGI (SNB-19 CNS): > 59.3 µM
- GI50 (TK-10 renal): 2.03 µM
- TGI (TK-10 renal): 4.5 µM
- GI50 (PC-3 prostate): > 54 µM
- TGI (PC-3 prostate): > 100 µM
- GI50 (SK-MEL-28 melanoma): > 75 µM
- TGI (SK-MEL-28 melanoma): > 100 µM
- GI50 (HCT-116 colon): 1.21 µM
- TGI (HCT-116 colon): > 59 µM
- GI50 (SK-MEL-2 melanoma): 27.2 µM
- TGI (SK-MEL-2 melanoma): 79.6 µM
- GI50 (HT29 colon): > 100 µM
- TGI (HT29 colon): > 100 µM
- GI50 (BT-549 breast): 9.84 µM
- TGI (BT-549 breast): > 59.9 µM
- GI50 (MALME-3M melanoma): 3.79 µM
- TGI (MALME-3M melanoma): > 85.8 µM
- GI50 (MCF7 breast): 3.56 µM
- TGI (MCF7 breast): > 100 µM
- GI50 (MDA-MB-468 breast): 3.4 µM
- TGI (MDA-MB-468 breast): > 91.6 µM
- GI50 (SNB-75 CNS): 1.63 µM
- TGI (SNB-75 CNS): 4.49 µM
- GI50 (HOP-62 NSCLC): 3.01 µM
- TGI (HOP-62 NSCLC): 28.3 µM
- GI50 (ACHN renal): 1.24 µM
- TGI (ACHN renal): 3.17 µM
- GI50 (K-562 leukemia): > 100 µM
- TGI (K-562 leukemia): > 100 µM
- GI50 (786-0 renal): 1.54 µM
- TGI (786-0 renal): 3.38 µM
- GI50 (CCRF-CEM leukemia): > 100 µM
- TGI (CCRF-CEM leukemia): > 100 µM
- GI50 (HCC-2998 colon): > 100 µM
- TGI (HCC-2998 colon): > 100 µM
- GI50 (UACC-62 melanoma): > 42.1 µM
- TGI (UACC-62 melanoma): > 89.6 µM
- GI50 (MOLT-4 leukemia): > 100 µM
- TGI (MOLT-4 leukemia): > 100 µM
- GI50 (RXF 393 renal): 1.93 µM
- TGI (RXF 393 renal): 5.63 µM
- GI50 (SF-295 CNS): 2.56 µM
- TGI (SF-295 CNS): > 41.1 µM

Reference: PubChem BioAssay (NCI)
